Assay results as given in patent US6277829A, “Process for preparing of aqueous formulation for opthalmic use” (S.I.F.I. Societa Industria Farmaceutica Italiana S.p.A., priority 1999, dated 2001).
≈ marks a conversion by molar mass, not a printed value.

Columns and labels:
[1] = background statement; cited from earlier work
[2] = Azithromycin distribution in aqueous humor after topical application; format: in vivo, white New Zealand rabbits; details: detection limit 3.8
Procedure: (§1) Twelve male white New Zealand rabbits (weighing 1.8-2.3 kg) have been randomly divided in three groups (consisting of four animals each).
(§2) I Group: three instillations (animals have been sacrificed 6 hours after the first dosing)
(§3) II Group: six instillations (animals have been sacrificed 12 hours after the first dosing)
(§4) III Group: six instillations (animals have been sacrificed 24 hours after the first dosing)
(§5) Aqueous humor has been drawn away with a 23-gauge needle attached to an insulin syringe of 1 ml. After enucleation the cornea has been excised at the limbus and removed from the eyeball. All specimens have been carefully weighed, then immediately frozen at -20° C. […] Each specimen has been ground and homogenized with 1 ml of PBS (2 min., 24,000 rpm). The suspension has been mixed with an equal volume of acetonitrile and stored at 0° C. After 1 hour, the samples have been centrifuged at 0° C. […] Aqueous humor has been directly mixed with acetonitrile before being centrifuged.

Staphylococcus aureus = assay: MIC90 for Staphylococcus aureus; format: cell-based
[3] = test system: St. Pneumoniae ATCC 49619; assay: In vitro antibacterial activity, MBC; format: cell-based; details: Streptococcus pneumoniae
Procedure: (§6) In vitro bacteriostatic/bactericidal activity of azithromycin in different ophthalmic solutions has been evaluated as a function of ([H+]). Assessment of the activity it has been carried out by standardized method recommended by the National Committee for Clinical Laboratory Standards (NCCLS). […] Accordingly, three aliquots of Mueller-Hinton broth have been adjusted to the same pH of the azithromycin solutions (three) to be tested. […] Incubation for Staphylococcus spp. and Pseudomonas spp. needs aerobic conditions whereas Streptococcus spp. and Haernophilus spp. require partial anaerobic conditions during the period of incubation (5%, CO2).

[4] = test system: S. epidermidis ATCC 12228; assay: In vitro antibacterial activity, MBC; format: cell-based; details: Staphylococcus epidermidis
Procedure: as §6

H. influenzae ATCC 49247 = assay: In vitro antibacterial activity, MBC; format: cell-based; details: Haemophilus influenzae
Procedure: as §6

S. aureus ATCC 25923 = assay: In vitro antibacterial activity, MBC; format: cell-based; details: Staphylococcus aureus
Procedure: as §6

S. aureus ATCC 29213 = assay: In vitro antibacterial activity, MBC; format: cell-based; details: Staphylococcus aureus
Procedure: as §6

St. Pyogenes ATCC 21547 = assay: In vitro antibacterial activity, MBC; format: cell-based; details: Streptococcus pyogenes
Procedure: as §6

[5] = test system: Ps. aeruginosa ATCC 27853; assay: In vitro antibacterial activity, MBC; format: cell-based; details: Pseudomonas aeruginosa
Procedure: as §6

S. aureus ATCC 6538P = assay: In vitro antibacterial activity, MBC; format: cell-based; details: Staphylococcus aureus, ATCC6538P
Procedure: as §6

H. influenzae ATCC 9006 = assay: In vitro antibacterial activity, MBC; format: cell-based; details: Haemophilus influenzae
Procedure: as §6

Ps. aeruginosa ATCC 9027 = assay: In vitro antibacterial activity, MBC; format: cell-based; details: Pseudomonas aeruginosa
Procedure: as §6

[6] = solubility in aqueous solution; format: physicochemical; details: aqueous citric acid/phosphate; process of the invention (citric acid/phosphate); read-out: solubility of azithromycin in aqueous solution
Text: Formulations containing azithromycin at concentration ranging from 0.01 to 10% w/v, more particularly between 0.3 and 5% w/v, are the most preferred.

in vivo = details: rabbit, topical or ocular, Ct (tissue concentration of azithromycin)
Procedure: as §1, §2, §3, §4, §5

[7] = cited from earlier work

For `CC[C@H]1OC(=O)[C@H](C)[C@@H](O[C@H]2C[C@@](C)(OC)[C@@H](O)[C@H](C)O2)[C@H](C)[C@@H](O[C@@H]2O[C@H](C)C[C@H](N(C)C)[C@H]2O)[C@](C)(O)C[C@@H](C)CN(C)[C@H](C)[C@@H](O)[C@]1(C)O` [azithromycin], which water solubility [1] is on record?
Its water solubility is “poor water solubility”.

And the azithromycin concentration in aqueous humor [2]?
Its azithromycin concentration in aqueous humor is under 3.8 µg/mL.

And the MIC90 (Staphylococcus aureus)?
The MIC90 was 2.25 mg/L (≈ 3 µM).

And the MBC ([3]; ATCC49619, pH 6.5)?
Its MBC is 3 mg/L (≈ 4.01 µM).

What about the MBC ([3]; ATCC49619, pH 7.2) of the same compound?
The MBC was 0.45 mg/L (≈ 0.601 µM).

What about the MBC ([3]; ATCC49619, pH 7.5) of the same compound?
Its MBC is 0.3 mg/L (≈ 0.401 µM).

And the MBC ([4]; ATCC12228, pH 6.5)?
Its MBC is over 4 mg/L.

What about the MBC ([4]; ATCC12228, pH 7.2) of the same compound?
The MBC was 3 mg/L (≈ 4.01 µM).

What about the MBC ([4]; ATCC12228, pH 7.5) of the same compound?
The MBC was 2 mg/L (≈ 2.67 µM).

And the MBC (H. influenzae ATCC 49247; ATCC49247, pH 6.5)?
Its MBC is 7 mg/L (≈ 9.35 µM).

And the MBC (H. influenzae ATCC 49247; ATCC49247, pH 7.2)?
The MBC was 3.5 mg/L (≈ 4.67 µM).

And the MBC (H. influenzae ATCC 49247; ATCC49247, pH 7.5)?
The MBC was 3 mg/L (≈ 4.01 µM).

What about the MBC (S. aureus ATCC 25923; ATCC25923, pH 6.5) of the same compound?
Its MBC is over 4 mg/L.

And the MBC (S. aureus ATCC 25923; ATCC25923, pH 7.2)?
Its MBC is 3.25 mg/L (≈ 4.34 µM).

What about the MBC (S. aureus ATCC 25923; ATCC25923, pH 7.5) of the same compound?
Its MBC is 2 mg/L (≈ 2.67 µM).

What about the MBC (S. aureus ATCC 29213; ATCC29213, pH 6.5) of the same compound?
Its MBC is over 4 mg/L.

And the MBC (S. aureus ATCC 29213; ATCC29213, pH 7.2)?
The MBC was over 4 mg/L.

And the MBC (S. aureus ATCC 29213; ATCC29213, pH 7.5)?
The MBC was 2.25 mg/L (≈ 3 µM).

What about the MBC (St. Pyogenes ATCC 21547; ATCC21547, pH 6.5) of the same compound?
Its MBC is 3 mg/L (≈ 4.01 µM).

And the MBC (St. Pyogenes ATCC 21547; ATCC21547, pH 7.2)?
Its MBC is 0.6 mg/L (≈ 0.801 µM).

And the MBC (St. Pyogenes ATCC 21547; ATCC21547, pH 7.5)?
Its MBC is 0.35 mg/L (≈ 0.467 µM).

And the MBC ([5]; ATCC27853, pH 7.2)?
The MBC was 100 mg/L (≈ 134 µM).

What about the MBC ([5]; ATCC27853, pH 7.5) of the same compound?
Its MBC is 50 mg/L (≈ 66.8 µM).

And the MBC (S. aureus ATCC 6538P; pH 6.5)?
Its MBC is over 4 mg/L.

What about the MBC (S. aureus ATCC 6538P; pH 7.2) of the same compound?
The MBC was 2.5 mg/L (≈ 3.34 µM).

What about the MBC (S. aureus ATCC 6538P; pH 7.5) of the same compound?
Its MBC is 1.75 mg/L (≈ 2.34 µM).

What about the MBC (H. influenzae ATCC 9006; ATCC9006, pH 6.5) of the same compound?
The MBC was 6 mg/L (≈ 8.01 µM).

What about the MBC (H. influenzae ATCC 9006; ATCC9006, pH 7.2) of the same compound?
Its MBC is 3.5 mg/L (≈ 4.67 µM).

And the MBC (H. influenzae ATCC 9006; ATCC9006, pH 7.5)?
Its MBC is 3.5 mg/L (≈ 4.67 µM).

And the MBC (Ps. aeruginosa ATCC 9027; ATCC9027, pH 7.2)?
The MBC was over 200 mg/L.

And the MBC (Ps. aeruginosa ATCC 9027; ATCC9027, pH 7.5)?
Its MBC is 200 mg/L (≈ 267 µM).

And the solubility [6]?
The solubility was over 100 mg/mL.

What about the concentration at 6 h (in vivo) of the same compound?
Its concentration at 6 h is under 100000 ng/g.

And the concentration at 24 h (in vivo)?
The concentration at 24 h was 216000 ng/g.

And the concentration at 12 h (in vivo; Average)?
Its concentration at 12 h is 222000 ng/g.

What about the concentration at 24 h (in vivo; Average) of the same compound?
The concentration at 24 h was 169000 ng/g.

What about the “intracellular distribution into specific tissues” value ([7]; after oral administration) of the same compound?
The value was “extensive intracellular distribution”.

What about the Half-life ([7]; in vivo) of the same compound?
Its Half-life is “extremely elevated”.
